From ChEMBL document CHEMBL5346948, “Expanding Chemical Probe Space: Quality Criteria for Covalent and Degrader Probes” (J Med Chem, 2023) come the findings set out here.

The subject of assay [1] is GTPase KRas (Homo sapiens), P01116 [G12C]. In words: Binding affinity to Hexahistidine-tagged recombinant human KRAS G12C mutant (1 to 169 residues) expressed in Escherichia coli assessed as kinact/Ki ratio.
Assay [2] addresses T1, B-cell lymphoma 6 protein (Homo sapiens, UniProt P41182). In words: Induction of BCL6 degradation in human SU-DHL-4 cells assessed as maximal degradation relative to control. It counts as cell-based.
The target of assay [3] is T1, B-cell lymphoma 6 protein. In words: Induction of BCL6 degradation in human SU-DHL-4 cells. It counts as cell-based.
Assay [4] has as its target von Hippel-Lindau disease tumor suppressor/SWI/SNF-related matrix-associated actin-dependent regulator of chromatin subfamily A member 2 (Homo sapiens) (UniProt P51531+P40337). In words: PROTAC activity at SMARCA2/VHL in human MV4-11 cells assessed as induction of protein degradation by measuring maximal protein degradation relative to control. In kind it is cell-based.

For assay [5], the target named is T2, Protein cereblon/RAC-alpha serine/threonine-protein kinase (Homo sapiens, UniProt P31749+Q96SW2). In words: Protac activity at CRBN/Akt1 in human JeKo-1 cells assessed as Akt1 degradation by immunoblot analysis. It counts as cell-based.
The target in assay [6] is T2, Protein cereblon/RAC-alpha serine/threonine-protein kinase. In words: Protac activity at CRBN/Akt1 in human JeKo-1 cells assessed as induction of Akt1 degradation by measuring maximal protein degradation relative to control. In kind it is cell-based.
Assay [7] concerns the target T3, Estrogen receptor (Homo sapiens) (UniProt P03372).
T3 sequence (whole entry): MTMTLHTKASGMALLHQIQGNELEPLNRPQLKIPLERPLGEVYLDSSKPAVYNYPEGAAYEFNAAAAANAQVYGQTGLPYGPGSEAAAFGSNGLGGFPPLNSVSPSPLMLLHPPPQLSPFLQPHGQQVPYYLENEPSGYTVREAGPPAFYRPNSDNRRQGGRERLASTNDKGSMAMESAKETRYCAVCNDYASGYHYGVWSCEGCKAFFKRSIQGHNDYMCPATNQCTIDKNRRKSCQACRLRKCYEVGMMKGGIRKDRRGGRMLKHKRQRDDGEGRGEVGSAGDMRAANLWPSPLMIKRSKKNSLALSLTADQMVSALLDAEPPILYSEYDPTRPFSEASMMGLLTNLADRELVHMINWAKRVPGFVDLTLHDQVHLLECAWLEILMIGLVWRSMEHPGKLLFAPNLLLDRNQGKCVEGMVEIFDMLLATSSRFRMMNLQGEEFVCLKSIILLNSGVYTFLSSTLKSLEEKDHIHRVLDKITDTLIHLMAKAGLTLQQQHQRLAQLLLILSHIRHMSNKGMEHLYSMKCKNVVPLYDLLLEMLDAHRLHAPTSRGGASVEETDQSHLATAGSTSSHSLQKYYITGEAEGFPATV
In words: Induction of ERalpha degradation in human MCF7 cells assessed as maximal degradation relative to control. It counts as cell-based.

The target of assay [8] is T4, von Hippel-Lindau disease tumor suppressor/Bcl-2-like protein 1 (Homo sapiens, UniProt Q07817+P40337). In words: Protac activity at VHL/BCL-XL in human MOLT-4 cells assessed as induction of BCL-XL degradation incubated for 16 hrs by immunoblot analysis. It counts as cell-based.
Assay [9] concerns the target T4, von Hippel-Lindau disease tumor suppressor/Bcl-2-like protein 1. Kind of assay: Protac activity at VHL/BCL-XL in human MOLT-4 cells assessed as induction of protein degradation by measuring maximal degradation relative to control. In kind it is cell-based.
In assay [10] the target is T5, Zinc finger protein Helios (Homo sapiens, UniProt Q9UKS7). Kind of assay: Induction of IKZF2 degradation in human GripTite 293 MSR cells. It counts as cell-based.
Assay [11] deals with T5, Zinc finger protein Helios. Kind of assay: Induction of IKZF2 degradation in human GripTite 293 MSR cells assessed as maximal degradation relative to control. It counts as cell-based.
In assay [12] the target is Tyrosine-protein kinase JAK1 (Homo sapiens, UniProt P23458). In words: Inhibition of JAK1 (unknown origin).
The test system of assay [13] is GTPase KRas (Homo sapiens), P01116 [G12C]. In words: Binding affinity to KRAS G12 mutant (unknown origin) assessed as kinact/Ki ratio.
The target of assay [14] is Cereblon/Bromodomain-containing protein 9 (Homo sapiens). In words: PROTAC activity at CRBN/BRD9 in human HeLa cells assessed as protein degradation by Western blot analysis.
In assay [15] the test system is Cereblon/Bromodomain-containing protein 9 (Homo sapiens). Kind of assay: PROTAC activity at CRBN/BRD9 in human HeLa cells assessed as induction of protein degradation by measuring maximal degradation relative to control.

Molecules are shown by their SMILES.

Regarding `C=CS(=O)(=O)NC1CCN(C(=O)CNc2cc(I)c(Cl)cc2O)CC1`, in assay [1], the Ratio was 0.33 s⁻¹ M⁻¹.

For `CNC(=O)COc1cc2cc(Nc3nc(N4C[C@H](C)C[C@H](C)C4)ncc3Cl)ccc2n(C)c1=O`, the Emax in assay [2] is over 80%. Moreover, half-maximal degradation in assay [3] (DC50) was put at 20 nM.

As for `Cc1ncsc1-c1ccc([C@H](CC[C@H](C)CCN2CCC(c3ccc4c(c3)n(C3CCCC3)c3nc(=O)c5c(Br)cccc5n43)CC2)NC(=O)[C@@H]2C[C@@H](O)CN2C(=O)[C@@H](NC(=O)C2(F)CC2)C(C)(C)C)cc1`, the Emax in [4] worked out at 81%.

Regarding `Cc1ncsc1-c1ccc([C@H](C)NC(=O)[C@@H]2C[C@@H](O)CN2C(=O)[C@@H](NC(=O)CCCCCCCCCCNC(=O)CCc2cccc(-c3ccc4nc(-c5cccnc5N)n(-c5ccc(C6(N)CCC6)cc5)c4n3)c2)C(C)(C)C)cc1`, the DC50 in [5] was 23 nM. The Emax in assay [6] is over 80%.

In the case of `O=C1CC[C@H](N2Cc3cc(N4CCN(CC5CCN(c6ccc([C@@H]7c8ccc(O)cc8CC[C@@H]7c7ccccc7)cc6)CC5)CC4)ccc3C2=O)C(=O)N1`, the maximal effect (Emax) in [7] was 80%.

Turning to `Cc1ncsc1-c1ccc([C@H](C)NC(=O)[C@@H]2C[C@@H](O)CN2C(=O)[C@@H](NC(=O)CCCCCC(=O)N2CCN(CC[C@H](CSc3ccccc3)Nc3ccc(S(=O)(=O)NC(=O)c4ccc(N5CCN(CC6=C(c7ccc(Cl)cc7)CCC(C)(C)C6)CC5)cc4)cc3S(=O)(=O)C(F)(F)F)CC2)C(C)(C)C)cc1` [DT-2216], the DC50 in assay [8] was determined as 63 nM. Moreover, the Emax in [9] was found to be 91%.

Consider `O=C1CCC(N2Cc3cc(C4CCN(Cc5ccccc5)CC4)ccc3C2=O)C(=O)N1` (centres undefined), for which it took 11 nM to reach half-maximal degradation in assay [10] (DC50). The Emax in [11] worked out at 69%.

As to `CS(=O)(=O)N1CC[C@H](C#CC(=O)N2CCC[C@@H](c3ccc(Cl)c(Cl)c3)C2)C1`, half-maximal inhibition in assay [12] (IC50) required 32 nM.

Regarding `C=CC(=O)N1CCN(c2nc(OC[C@@H]3CCCN3C)nc3c(F)c(-c4nc(N)cc(C)c4C(F)(F)F)c(Cl)cc23)[C@@H](C)C1`, in assay [13], the Ratio was determined as 27000 s⁻¹ M⁻¹.

Take `C=CC(=O)N1CCN(c2ncnc3c(F)c(-c4c(O)cccc4F)c(Cl)cc23)CC1`: in assay [1], the Ratio is 1100 s⁻¹ M⁻¹.

For `C=CC(=O)N1CC(N2CCN(C(=O)CNc3cc(C4(C)CC4)c(Cl)cc3O)CC2)C1`, the Ratio in assay [1] turned out to be 250 s⁻¹ M⁻¹.

Take `COc1cc(-c2cn(C)c(=O)c3cnc(N4CCC4)cc23)cc(OC)c1CN1CCC(CN2CCC3(CC2)CN(c2ccc4c(c2)C(=O)N([C@H]2CCC(=O)NC2=O)C4)C3)CC1`: in assay [14], the half-maximal degradation concentration (DC50) is under 1 nM. Moreover, the Emax in assay [15] is 97%.

As to `COc1cc(-c2cn(C)c(=O)c(C)c2C)cc(OC)c1CN1CC[C@H](N2CCN(c3ccc(N[C@H]4CCC(=O)NC4=O)cc3F)CC2)C(F)(F)C1` [SENDEGOBRESIB], the DC50 in assay [14] was 3 nM. Also, in assay [15], the Emax came to 96%.
